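Five compound concentrations were applied to cells in 96-well plates for 48 hours; endpoints were derived by simple linear interpolation of the resulting dose-response curve. GI50: concentration for 50% inhibition of growth.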 Activity calls are given as the source filed them. Cut-off read from the data, not from the text of the source: active = GI50 up to about 1.1 µM and inactive = higher.
Experiments:
Assay in all cases: inhibition of tumour cell growth, NCI panel, 48 h
U-251 = system: U-251
Hs-578T = system: Hs-578T
A498 = system: A498
NCI-H226 = system: NCI-H226
HL-60 = system: HL-60
SF-539 = system: SF-539
MDA-MB-435 = system: MDA-MB-435
SK-OV-3 = system: SK-OV-3
KM12 = system: KM12
PC-3 = system: PC-3
NCI/ADR-RES = system: NCI/ADR-RES
DU-145 = system: DU-145
HT-29 = system: HT-29
Malme-3M = system: Malme-3M
HCC 2998 = system: HCC 2998
SK-MEL-28 = system: SK-MEL-28
SNB-75 = system: SNB-75
RPMI-8226 = system: RPMI-8226
SK-MEL-2 = system: SK-MEL-2
MDA-N = system: MDA-N

Row | SMILES | GI50 (U-251) | GI50 (Hs-578T) | GI50 (A498) | GI50 (NCI-H226) | GI50 (HL-60) | GI50 (SF-539) | GI50 (MDA-MB-435) | GI50 (SK-OV-3) | GI50 (KM12) | GI50 (PC-3) | GI50 (NCI/ADR-RES) | GI50 (DU-145) | GI50 (HT-29) | GI50 (Malme-3M) | GI50 (HCC 2998) | GI50 (SK-MEL-28) | GI50 (SNB-75) | GI50 (RPMI-8226) | GI50 (SK-MEL-2) | GI50 (MDA-N)
1 | CC1CCC2C(C)C3C(CC4C5CC=C6CC(OC7OC(CO)C(O)C(OC8OC(CO)C(O)C(O)C8O)C7OC7OC(C)C(O)C(O)C7O)CCC6(C)C5CCC43C)N2C1 (centres undefined) | 16 µM (inactive) | 13.7 µM (inactive) | 17.5 µM (inactive) | 20.8 µM (inactive) | 8.24 µM (inactive) | 8.83 µM (inactive) | 9.12 µM (inactive) | 16 µM (inactive) | 14.8 µM (inactive) | 14.9 µM (inactive) | 17.9 µM (inactive) | 18.9 µM (inactive) | 12 µM (inactive) | 27.7 µM (inactive) | 18.1 µM (inactive) | 7.94 µM (inactive) | 9.57 µM (inactive) | 19.9 µM (inactive) | 19.5 µM (inactive) | 10.7 µM (inactive)
2 | CC(C)(C)OC(=O)c1ccc(NCc2cc(O)ccc2O)cc1 | 1.95 µM (inactive) | 1.69 µM (inactive) | 9.68 µM (inactive) | 2.22 µM (inactive) | 0.447 µM (active) | 1.22 µM (inactive) | 2.96 µM (inactive) | 6.05 µM (inactive) | 2.93 µM (inactive) | 1.5 µM (inactive) | 1.73 µM (inactive) | 7.78 µM (inactive) | 13.5 µM (inactive) | 1.85 µM (inactive) | 7.36 µM (inactive) | 2.03 µM (inactive) | 3.4 µM (inactive) | 0.617 µM (active) | 4.34 µM (inactive) | 3.31 µM (inactive)
3 | CC1=C(O)C(=O)C[C@]2(C)[C@H]3CC=C4[C@@H]5CC(C)(C)CC[C@@H]5C(=O)[C@H](O)[C@@]4(C)[C@]3(C)CC[C@@H]12 | 27.5 µM (inactive) | 25.1 µM (inactive) | > 50 µM (inactive) | > 50 µM (inactive) | > 50 µM (inactive) | 2.8 µM (inactive) | > 50 µM (inactive) | > 50 µM (inactive) | > 50 µM (inactive) | 16.7 µM (inactive) | > 50 µM (inactive) | > 50 µM (inactive) | > 50 µM (inactive) | > 50 µM (inactive) | 20.4 µM (inactive) | > 50 µM (inactive) | 17.3 µM (inactive) | 42.5 µM (inactive) | 37.4 µM (inactive) | 47.3 µM (inactive)
4 | COc1cccc(/C=C/C2=NN(c3cccc(S(=O)(=O)O)c3)C3(C2)SCC(=O)N3c2nc3ccccc3s2)c1 (centres undefined) | 30.5 µM (inactive) | 32.7 µM (inactive) | 33 µM (inactive) | 23.8 µM (inactive) | 26.7 µM (inactive) | 17.1 µM (inactive) | 24.4 µM (inactive) |  | 32 µM (inactive) | 37.9 µM (inactive) | 53.3 µM (inactive) | 30.6 µM (inactive) | 64.7 µM (inactive) | 47 µM (inactive) | 95.1 µM (inactive) | > 100 µM (inactive) | 74.6 µM (inactive) | 22.5 µM (inactive) | 44.8 µM (inactive) | 62.7 µM (inactive)
5 | COc1ccc(OCC(=N/NC(=O)c2ccncc2)/N=C/c2cccnc2)cc1 | > 100 µM (inactive) | 57.9 µM (inactive) | 65.3 µM (inactive) | 61.1 µM (inactive) | > 100 µM (inactive) | 64.3 µM (inactive) | 18.2 µM (inactive) | > 100 µM (inactive) | 50.9 µM (inactive) | > 100 µM (inactive) | > 100 µM (inactive) | > 100 µM (inactive) | > 100 µM (inactive) | 43.6 µM (inactive) | 83.9 µM (inactive) | 94.8 µM (inactive) | 24.2 µM (inactive) | 67.6 µM (inactive) | > 100 µM (inactive) | 17 µM (inactive)
6 | O=c1c2ncn(COCCCl)c2n(-c2ccccc2)c(=S)n1-c1ccccc1 | > 100 µM (inactive) | > 100 µM (inactive) | > 100 µM (inactive) | > 100 µM (inactive) | > 100 µM (inactive) | > 100 µM (inactive) | > 100 µM (inactive) | > 100 µM (inactive) | > 100 µM (inactive) | > 100 µM (inactive) | > 100 µM (inactive) | > 100 µM (inactive) | > 100 µM (inactive) | > 100 µM (inactive) | > 100 µM (inactive) | > 100 µM (inactive) | 4.7 µM (inactive) | 79.8 µM (inactive) | > 100 µM (inactive) | > 100 µM (inactive)
7 | O=C(CC1(O)C(=O)Nc2c(Cl)ccc(Cl)c21)c1ccco1 (centres undefined) | 22.7 µM (inactive) | 26 µM (inactive) | 30.4 µM (inactive) | 19.7 µM (inactive) | 14.7 µM (inactive) | 27.9 µM (inactive) | 1.85 µM (inactive) | 31.5 µM (inactive) | 27 µM (inactive) | 28.2 µM (inactive) | 23.7 µM (inactive) | 40.3 µM (inactive) | 22.4 µM (inactive) | 20 µM (inactive) | 33.5 µM (inactive) | 19.5 µM (inactive) | 27 µM (inactive) | 16.8 µM (inactive) | 26.1 µM (inactive) | 3.63 µM (inactive)
8 | COC1=C(C)C(=O)c2c(c(COC(N)=O)c3n2CC(OC(C)=O)C3OC(C)=O)C1=O (centres undefined) | 0.0944 µM (active) | 0.239 µM (active) | 0.593 µM (active) | 0.297 µM (active) | < 0.0192 µM (active) | 0.0239 µM (active) | 0.165 µM (active) | 0.41 µM (active) | 0.228 µM (active) | 0.131 µM (active) | 0.127 µM (active) | 0.0251 µM (active) | 0.036 µM (active) | 0.0493 µM (active) | 0.111 µM (active) | 0.311 µM (active) | 0.208 µM (active) | 0.0577 µM (active) | 0.191 µM (active) | 0.126 µM (active)
9 | C[n+]1c2ccccc2n2c3ccccc3c(NCCCN3CCOCC3)c(C#N)c21 | 1.52 µM (inactive) | 1.41 µM (inactive) | 8.87 µM (inactive) | 1.86 µM (inactive) | 8.13 µM (inactive) | 0.556 µM (active) | 1.78 µM (inactive) | 2.5 µM (inactive) | 1.61 µM (inactive) | 1.31 µM (inactive) | > 41.4 µM (inactive) | 2.13 µM (inactive) | 2.37 µM (inactive) | 2.05 µM (inactive) | 1.27 µM (inactive) | 3.32 µM (inactive) | 2.23 µM (inactive) | 0.726 µM (active) | 1.91 µM (inactive) | 1.04 µM (active)
10 | COc1ccc2cc3c4cc5c(cc4cc[n+]3cc2c1OC)OCO5 | 0.615 µM (active) | 3.26 µM (inactive) | > 100 µM (inactive) | 26.4 µM (inactive) | 19.2 µM (inactive) | 11.4 µM (inactive) | 6.95 µM (inactive) | 29.4 µM (inactive) | 2.88 µM (inactive) | 14.2 µM (inactive) | > 100 µM (inactive) | 30.3 µM (inactive) | 26.3 µM (inactive) | 4.83 µM (inactive) | 22 µM (inactive) | 5.33 µM (inactive) | 27.8 µM (inactive) | 8.13 µM (inactive) | 22.8 µM (inactive) | 7.52 µM (inactive)
11 | CC(=N\N=C\c1ccccn1)/C(C)=N/N=C/c1ccccn1 | > 100 µM (inactive) | > 100 µM (inactive) | > 100 µM (inactive) | > 100 µM (inactive) | > 100 µM (inactive) | > 100 µM (inactive) | 42.9 µM (inactive) | > 100 µM (inactive) | > 100 µM (inactive) | > 100 µM (inactive) | > 100 µM (inactive) | > 100 µM (inactive) | > 100 µM (inactive) | > 100 µM (inactive) | > 100 µM (inactive) | > 100 µM (inactive) | > 100 µM (inactive) | > 100 µM (inactive) | > 100 µM (inactive) | 51.6 µM (inactive)
12 | CC(C)C(OC(=O)c1ccc(NCC2=CC(=O)C=CC2=O)cc1)C(C)C | 3.32 µM (inactive) | 3.68 µM (inactive) | 9.12 µM (inactive) | 4.24 µM (inactive) | 1.25 µM (inactive) | 1.99 µM (inactive) | 4.75 µM (inactive) | 13.8 µM (inactive) | 11.5 µM (inactive) | 8.09 µM (inactive) | 4.3 µM (inactive) | 18.4 µM (inactive) | 10.7 µM (inactive) | 8.89 µM (inactive) | 13.6 µM (inactive) | 4.05 µM (inactive) | 4.35 µM (inactive) | 3.15 µM (inactive) | 11.6 µM (inactive) | 5.2 µM (inactive)
13 | Cc1cccc(/C=N/NC(=S)N2CCCCCC2)n1 | < 0.0417 µM (active) | 9.59 µM (inactive) | 0.449 µM (active) | 1.33 µM (inactive) | < 0.01 µM (active) | 0.205 µM (active) | 1.3 µM (inactive) | 0.556 µM (active) | 0.23 µM (active) | < 0.0166 µM (active) | < 0.01 µM (active) | 0.254 µM (active) | < 0.01 µM (active) | 0.313 µM (active) | 0.468 µM (active) | 0.608 µM (active) | 0.135 µM (active) | < 0.01 µM (active) | 0.546 µM (active) | 0.406 µM (active)
14 | O=[N+]([O-])c1cc2oc(CSc3ccccc3)nc2cc1Cl | 23.6 µM (inactive) | 51.6 µM (inactive) | 25.5 µM (inactive) | 29.6 µM (inactive) | 30.3 µM (inactive) | 32.7 µM (inactive) | 32.4 µM (inactive) | 29.5 µM (inactive) | 32 µM (inactive) | 48 µM (inactive) | 12.9 µM (inactive) | 37.7 µM (inactive) | 28.1 µM (inactive) | 50 µM (inactive) | 23.5 µM (inactive) | 35.2 µM (inactive) | 26.1 µM (inactive) | 40.9 µM (inactive) | 26 µM (inactive) | 35 µM (inactive)

Reference: ChEMBL document CHEMBL1201862, “PubChem BioAssay data set” (2004)
